Data published in patent US20240217969A1, “SUBSTITUTED PYRROLE CARBOXAMIDES, PROCESS FOR THEIR PREPARATION AND THEIR USE AS KINASE INHIBITORS” (priority 2021, published 2024).
pIC50: −log10 of the molar value.

Assays:
Cdc7 = Cdc7 (Homo sapiens, UniProt O00311); test: Cdc7 biochemical assay, ADPGlo assay format
Protocol: The biochemical activity of compounds was determined by incubation with specific enzymes and substrate, followed by quantification of the ADP product. Compounds were 4-fold serially diluted from 10 to 0.0006 uM; in the case of the pre-incubation step, the enzyme is added to the inhibitor solution and the mixture is left to incubate for 30 minutes at room temperature (r.t.). The reaction started with the addition of the substrate and the ATP, when the enzyme was already present in the preincubation step, or substrate, ATP and enzyme when the preincubation step was not present. The concentrations of ATP, substrate and reaction buffer are described above. The assays were run in a robotized format on 384-well plates. […] At the end of the incubation time, an equal volume of ADPGlo Reagent 1 (Promega) was added to stop the reaction and to remove all unreacted ATP. After 60 minutes, an equal volume of ADPGlo Reagent 2 (Promega) was added to convert ADP in ATP and then ATP in light by luciferase reaction.
y=bottom+(top−bottom)/(1+10^((log IC50−x)*slope))
where x is the logarithm of the inhibitor concentration, y is the response; y starts at bottom and goes to top with a sigmoid shape.

[1] = molecular target: T1, aldehyde oxidases (human liver cytosol) (Homo sapiens, UniProt Q06278); assay type: in vitro ADME; settings: human liver cytosol 1 mg/mL, 1 μM compound; for HLC % remaining (1 h incub.): 60 min incubation; for HLC % remaining (1 h incub.) / HLC T½ min: pH 7.4, 37° C.; for IntCl (Intrinsic Clearance): half-life approach
T1 construct: added to human liver cytosol (1 mg/mL protein content); from tissue; host or cells: human liver cytosol
Protocol: The aldehyde oxidases involvement in the metabolism of the test item was determined by comparison of the intrinsic clearance values in the presence and absence of aldehyde oxidases inhibitor hydralazine hydrochloride. The purpose of the study was to evaluate the in-vitro intrinsic clearance, the metabolic stability towards aldehyde oxidases (AO) activity and the metabolism of the test item in human liver cytosol. The intrinsic clearance was determined using the half-life approach, by measuring the substrate disappearance along 60 minutes incubation with human liver cytosol. Incubations were performed at the concentration of 1 μM. […] HPLC-MS/MS was used for the detection of the compound left over during the incubation. For intrinsic clearance determination samples were analyzed by high performance liquid chromatography (HPLC) on-line with mass spectrometry (MS) equipment. For the determination of aldehyde oxidases activity (i.e. positive control) of cytosol, phthalazine was incubated with human liver cytosol in presence and absence of the aldehyde oxidases inhibitor. On the day of the incubation, the compound was dissolved in DMSO at the concentration of 10 mM. Aliquots of this solution were added to the test system to a final concentration of […]. The percentage of DMSO in the final incubates was […]. Aliquots of the test item were added to human liver cytosol (1 mg/mL protein content) in Dulbecco's buffer, pH 7.4 at 37° C., to reach final concentration of 1 μM. Incubations were performed in a 48-well plate, under shaking. At 0, 5, 10, 20, 30 and 60 minutes incubation, 50 μL aliquots of the incubate were sampled, poured in 80 μL of ice-cold acetonitrile and 20 μL of 1 μM warfarin in acetonitrile (injection control) and centrifuged at 2500 rpm for 20 minutes. The supernatant was immediately analysed by LC-MS/MS.
The test item was incubated in parallel, in duplicate, at the concentration of 1 μM in Dulbecco's buffer, pH 7.4 for 60 min at 37° C. in the presence of 10 μM hydralazine hydrochloride (aldehyde oxidases inhibitor).
The chemical stability of the test item was checked in parallel by incubating the test item in single at the concentration of 1 μM in Dulbecco's buffer, pH 7.4 for 60 min at 37° C. (negative control).
The intrinsic clearance (CLint) was calculated using the half-life approach. Half-life and CLint were determined from the concentration (area counts) remaining at the different sampling points using the LC-MS/MS method. By plotting the natural logarithmic area of the compound remaining against the time, the slope was calculated by linear regression analysis and converted into the half-life (t½) and CLint expressed as μL/min/mg protein according to the following formulae: […]

T1 sequence (Q06278 whole entry): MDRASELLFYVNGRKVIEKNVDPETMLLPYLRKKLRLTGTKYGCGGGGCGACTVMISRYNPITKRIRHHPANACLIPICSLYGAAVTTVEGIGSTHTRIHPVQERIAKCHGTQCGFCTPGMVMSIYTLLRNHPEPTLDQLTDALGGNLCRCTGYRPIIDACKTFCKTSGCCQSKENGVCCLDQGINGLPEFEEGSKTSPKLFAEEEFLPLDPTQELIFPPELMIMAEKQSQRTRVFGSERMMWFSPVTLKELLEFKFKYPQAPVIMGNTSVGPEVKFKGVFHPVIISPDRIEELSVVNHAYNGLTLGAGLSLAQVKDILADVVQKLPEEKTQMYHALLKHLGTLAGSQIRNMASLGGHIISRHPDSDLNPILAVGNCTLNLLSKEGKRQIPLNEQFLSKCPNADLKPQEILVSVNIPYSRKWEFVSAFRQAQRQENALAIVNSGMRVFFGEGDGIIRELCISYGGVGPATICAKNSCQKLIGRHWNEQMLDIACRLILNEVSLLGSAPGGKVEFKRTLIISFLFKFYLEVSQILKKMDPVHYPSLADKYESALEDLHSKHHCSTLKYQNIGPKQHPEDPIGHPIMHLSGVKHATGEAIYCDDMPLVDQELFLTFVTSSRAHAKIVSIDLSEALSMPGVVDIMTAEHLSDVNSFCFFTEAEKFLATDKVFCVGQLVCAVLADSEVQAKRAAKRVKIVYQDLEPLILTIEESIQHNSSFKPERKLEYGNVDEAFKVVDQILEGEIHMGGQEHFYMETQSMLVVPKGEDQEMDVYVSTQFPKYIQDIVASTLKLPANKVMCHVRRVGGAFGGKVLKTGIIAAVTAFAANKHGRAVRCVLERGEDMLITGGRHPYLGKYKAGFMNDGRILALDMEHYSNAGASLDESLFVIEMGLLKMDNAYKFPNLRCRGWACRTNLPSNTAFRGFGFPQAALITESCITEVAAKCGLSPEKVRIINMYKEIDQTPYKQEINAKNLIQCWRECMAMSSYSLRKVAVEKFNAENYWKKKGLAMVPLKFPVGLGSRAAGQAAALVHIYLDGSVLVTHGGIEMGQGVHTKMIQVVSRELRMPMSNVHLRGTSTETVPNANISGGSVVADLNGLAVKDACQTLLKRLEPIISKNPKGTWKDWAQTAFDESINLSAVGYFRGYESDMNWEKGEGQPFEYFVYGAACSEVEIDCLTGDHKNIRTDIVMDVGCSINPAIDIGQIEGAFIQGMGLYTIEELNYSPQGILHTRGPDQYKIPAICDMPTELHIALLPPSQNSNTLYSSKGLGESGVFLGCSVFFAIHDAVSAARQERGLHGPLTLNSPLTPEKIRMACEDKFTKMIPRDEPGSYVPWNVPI
Chain of Cdc7 (O00311 whole entry): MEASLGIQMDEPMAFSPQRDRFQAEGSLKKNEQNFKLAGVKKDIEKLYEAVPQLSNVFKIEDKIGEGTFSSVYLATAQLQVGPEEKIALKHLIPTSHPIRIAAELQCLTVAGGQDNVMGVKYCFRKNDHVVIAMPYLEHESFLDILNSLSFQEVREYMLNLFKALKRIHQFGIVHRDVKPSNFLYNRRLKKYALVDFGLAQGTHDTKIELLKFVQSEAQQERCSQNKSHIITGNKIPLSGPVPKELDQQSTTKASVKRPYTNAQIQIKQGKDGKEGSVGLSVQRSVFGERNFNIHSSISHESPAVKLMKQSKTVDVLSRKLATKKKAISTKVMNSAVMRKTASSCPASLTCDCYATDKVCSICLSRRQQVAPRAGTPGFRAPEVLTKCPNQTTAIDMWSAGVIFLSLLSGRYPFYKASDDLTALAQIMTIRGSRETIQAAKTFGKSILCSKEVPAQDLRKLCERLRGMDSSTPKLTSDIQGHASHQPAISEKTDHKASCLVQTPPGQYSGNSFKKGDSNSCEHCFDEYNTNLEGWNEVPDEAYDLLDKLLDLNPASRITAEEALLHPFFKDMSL
Chain of Cdc7 (Q9UBU7 whole entry partner): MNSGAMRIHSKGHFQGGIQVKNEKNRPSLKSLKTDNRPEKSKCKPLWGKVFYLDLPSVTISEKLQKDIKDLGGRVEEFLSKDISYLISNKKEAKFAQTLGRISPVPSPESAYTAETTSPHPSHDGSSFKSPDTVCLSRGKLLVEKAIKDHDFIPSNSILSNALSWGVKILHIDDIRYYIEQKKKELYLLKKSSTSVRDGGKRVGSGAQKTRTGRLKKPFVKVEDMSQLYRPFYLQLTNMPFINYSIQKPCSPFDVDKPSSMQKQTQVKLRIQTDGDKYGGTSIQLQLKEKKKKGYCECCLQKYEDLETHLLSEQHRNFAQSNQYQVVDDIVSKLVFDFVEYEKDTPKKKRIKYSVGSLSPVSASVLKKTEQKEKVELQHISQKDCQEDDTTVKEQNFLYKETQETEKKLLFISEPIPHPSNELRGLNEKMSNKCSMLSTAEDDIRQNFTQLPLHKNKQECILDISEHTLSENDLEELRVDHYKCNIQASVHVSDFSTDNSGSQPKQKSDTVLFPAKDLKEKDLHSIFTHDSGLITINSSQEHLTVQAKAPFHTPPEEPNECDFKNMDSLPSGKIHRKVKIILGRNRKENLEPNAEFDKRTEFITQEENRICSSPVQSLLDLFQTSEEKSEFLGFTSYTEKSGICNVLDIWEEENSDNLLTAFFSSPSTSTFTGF

Row | Compound | pIC50 (Cdc7) | HLC % remaining (1 h incub.) [1] [%] | IntCl (Intrinsic Clearance) [1] [μL/min/mg protein] | HLC T½ min [1] [h]
1 | NC(=O)c1cc(-c2ccnc3[nH]ccc23)[nH]c1-c1cccc(F)c1F [comp 6, 2-(2,3-difluorophenyl)-5-(1H-pyrrolo[2,3-b]pyridin-4-yl)-1H-pyrrole-3-carboxamide] | 8.30 | 100 | 2.9 | 3.98
2 | NC(=O)c1cc(-c2c[nH]nc2C(F)(F)F)[nH]c1-c1ccc(Cl)cc1Cl [compound 48, 2-(2,4-dichlorophenyl)-5-[3-(trifluoromethyl)-1H-pyrazol-4-yl]-1H-pyrrole-3-carboxamide] | 6.73 | 100 | 2.9 | 3.98
3 | Cc1ccc(-c2[nH]c(-c3cn[nH]c3)cc2C(N)=O)c(F)c1 [compound 49, 2-(2-fluoro-4-methylphenyl)-5-(1H-pyrazol-4-yl)-1H-pyrrole-3-carboxamide] | 7.74 | 100 | 2.9 | 3.98
4 | NC(=O)c1cc(-c2cc(N)ncn2)[nH]c1-c1ccc(Cl)cc1Cl [compound 42, 5-(6-aminopyrimidin-4-yl)-2-(2,4-dichlorophenyl)-1H-pyrrole-3-carboxamide] | 7.05 | 100 | 2.9 | 3.98
5 | Cc1n[nH]cc1-c1cc(C(N)=O)c(-c2ccc(Cl)cc2Cl)[nH]1 [compound 44, 2-(2,4-dichlorophenyl)-5-(3-methyl-1H-pyrazol-4-yl)-1H-pyrrole-3-carboxamide] | 7.32 | 100 | 2.9 | 3.98
6 | Cc1ccc(-c2[nH]c(-c3ccnc4[nH]ccc34)cc2C(N)=O)c(Cl)c1 [comp 9, 2-(2-chloro-4-methylphenyl)-5-(1H-pyrrolo[2,3-b]pyridin-4-yl)-1H-pyrrole-3-carboxamide] | 9.00 | 100 | 2.9 | 3.98
7 | NC(=O)c1cc(-c2cn[nH]c2)[nH]c1-c1ccc(Cl)cc1Cl [compound 43, 2-(2,4-dichlorophenyl)-5-(1H-pyrazol-4-yl)-1H-pyrrole-3-carboxamide] | 7.89 | 100 | 2.9 | 3.98
8 | NC(=O)c1cc(-c2ccnc3[nH]ccc23)[nH]c1-c1ccc(F)cc1F [comp 4, 2-(2,4-difluorophenyl)-5-(1H-pyrrolo[2,3-b]pyridin-4-yl)-1H-pyrrole-3-carboxamide] | 8.40 | 100 | 2.9 | 3.98
9 | NC(=O)c1cc(-c2ccnc3[nH]ccc23)[nH]c1-c1cccc(Cl)c1Cl [comp 7, 2-(2,3-dichlorophenyl)-5-(1H-pyrrolo[2,3-b]pyridin-4-yl)-1H-pyrrole-3-carboxamide] | 9.00 | 95 | 2.9 | 3.98
10 | NC(=O)c1cc(-c2ccnc3[nH]ccc23)[nH]c1-c1ccc(Cl)cc1Cl [compound 46, 2-(2,4-dichlorophenyl)-5-(1H-pyrrolo[2,3-b]pyridin-4-yl)-1H-pyrrole-3-carboxamide] | 9.00 | 100 | 2.9 | 3.98
11 | Cc1cc(C(F)(F)F)ccc1-c1[nH]c(-c2ccnc3[nH]ccc23)cc1C(N)=O [comp 11, 2-[2-methyl-4-(trifluoromethyl)phenyl]-5-(1H-pyrrolo[2,3-b]pyridin-4-yl)-1H-pyrrole-3-carboxamide] | 8.15 | 100 | 2.9 | 3.98
12 | NC(=O)c1cc(-c2ccnc3[nH]ccc23)[nH]c1-c1ccc(C(F)(F)F)cc1Cl [comp 5, 2-[2-chloro-4-(trifluoromethyl)phenyl]-5-(1H-pyrrolo[2,3-b]pyridin-4-yl)-1H-pyrrole-3-carboxamide] | 9.00 | 100 | 2.9 | 3.98
13 | Cc1ccc(-c2[nH]c(-c3ccnc4[nH]ccc34)cc2C(N)=O)c(F)c1F [comp 10, 2-(2,3-difluoro-4-methylphenyl)-5-(1H-pyrrolo[2,3-b]pyridin-4-yl)-1H-pyrrole-3-carboxamide] | 8.52 | 95 | 2.9 | 3.98
14 | Cc1cccc(-c2[nH]c(-c3ccnc4[nH]ccc34)cc2C(N)=O)c1F [comp 14, 2-(2-fluoro-3-methylphenyl)-5-(1H-pyrrolo[2,3-b]pyridin-4-yl)-1H-pyrrole-3-carboxamide] | 8.00 | 100 | 2.9 | 3.98
15 | CCc1c(-c2ccnc3[nH]ccc23)[nH]c(-c2ccc(C)cc2F)c1C(N)=O [comp 40, 4-ethyl-2-(2-fluoro-4-methylphenyl)-5-(1H-pyrrolo[2,3-b]pyridin-4-yl)-1H-pyrrole-3-carboxamide] | 6.14 |  |  | 
16 | Cc1ccc(-c2[nH]c(-c3ccnc4[nH]ccc34)cc2C(=O)N[C@H]2CCCC[C@H]2N)c(F)c1 [comp 26, N-[(1S,2R)-2-aminocyclohexyl]-2-(2-fluoro-4-methylphenyl)-5-(1H-pyrrolo[2,3-b]pyridin-4-yl)-1H-pyrrole-3-carboxamide] | 7.92 |  |  | 
17 | Cc1ccc(-c2[nH]c(-c3ccnc4[nH]ccc34)c(Br)c2C(N)=O)c(F)c1 [comp 39, 2-(2-fluoro-4-methylphenyl)-4-bromo-5-(1H-pyrrolo[2,3-b]pyridin-4-yl)-1H-pyrrole-3-carboxamide] | 6.80 |  |  | 
18 | Cc1ccc(-c2[nH]c(-c3ccnc4[nH]ccc34)cc2C(=O)NCCN(C)C)c(F)c1 [comp 24, N-[2-(dimethylamino)ethyl]-2-(2-fluoro-4-methylphenyl)-5-(1H-pyrrolo[2,3-b]pyridin-4-yl)-1H-pyrrole-3-carboxamide] | 6.13 |  |  | 
19 | NC(=O)c1cc(-c2ccnc3[nH]ccc23)[nH]c1-c1csc2ccccc12 [comp 35, 2-(1-benzothiophen-3-yl)-5-(1H-pyrrolo[2,3-b]pyridin-4-yl)-1H-pyrrole-3-carboxamide] | 8.15 |  |  | 
